Source: patent US11045480B2, “Anti-huLRRC15 antibody drug conjugates and methods for their use” (AbbVie Inc., priority 2015, dated 2021)

Columns and labels:
Format in all cases: in vivo, mouse
[1] = tested on: SCC-15 head and neck cancer xenograft; assay: SCC-15 xenograft tumor growth; conditions: for TGD, single agent / TGImax, single agent: SCC-15, SCID mice
Procedure: Radiation is a commonly used cytotoxic therapy in oncology. […] SCC-15 head and neck cancer cells (1 million) were implanted subcutaneously into SCID mice, and mice were randomized when the tumors reached ˜200 mm^3 and dosed with biologics at 12 mg/kg intraperitoneally on a Q4D×6 (one dose given every 4 days for a total of 6 doses), while the radiation was directed at the tumor with a single radiation dose of 15 Gy on day 0.
SCC-15 head and neck cancer cells (1 million) were implanted subcutaneously into SCID mice, and mice were randomized when the tumors reached ˜200 mm^3 and dosed with biologics at 12 mg/kg intraperitoneally on a Q7D×6 (one dose given every 7 days for a total of 6 doses), while carboplatin was dosed intraperitoneally […] at 50 mg/kg Q4D×4 (one dose given every 4 days for a total of 4 doses).

[2] = tested on: HN5 (head and neck) xenograft; assay: HN5 xenograft tumor growth; conditions: HN5, NSG mice; ADC 4.5 mg/kg IP Q4D×6; erlotinib 150 mg/kg orally daily ×10; cetuximab 3 mg/kg IP Q7D×3 (FIG. 20B)
EBC-1 tumors = assay: Ex vivo analysis (flow cytometry, microscopy, IHC) of treated EBC-1 tumors
Procedure: For the experiments, 5 million EBC-1 cells grown in vitro were implanted per mouse into the right flank of SCID-beige mice. Tumors were size-matched at ˜300 mm^3 and treated on day 0 and day 4 with 6 mg/kg intraperitoneally for each biologic drug shown in FIG. 15A. Tumors were harvested from the mice in each group 11 days post randomization and start of treatment. Tumors were dissociated into single cell suspensions using Miltenyi Biotec gentleMACS Dissociator according to the manufacturer's guidelines for the dissociation of tough tumors. Dissociated tumor cells were passed through a 70 μm filter, counted, and immediately used for flow cytometry. Single-cell suspensions were resuspended in PBS with 10% FBS and 10 μg/mL FcR block (anti-mouse CD16/CD32, clone 93, eBioscience, Cat. #16-0161.) The following directly conjugated antibodies were used for flow cytometry: human IgG1 κ isotype control (AB095) AF647, anti-huLRRC15 (hu208.4.1a.1a) AF647, anti-FAP (huFAP MAB5) AF647, mouse anti-human CD326 (EPCAM) PE (clone 1B7, eBioscience, Cat. #12-9326), anti-mouse CD11b PE (clone M1/70, eBioscience, Cat. #12-0112), anti mouse CD11c PE (clone N418, eBioscience, Cat. #12-0114), and anti-mouse F4/80 PE (clone BM9, eBioscience, Cat. #12-4801). Ex vivo EBC1 tumor cell suspensions were incubated with fluor-conjugated antibodies for 20 minutes on ice and washed twice using PBS with 1% FBS. Flow cytometry data were collected using a Becton Dickinson FacsCalibur, and data were analyzed using FlowJo™ analysis software (TreeStar). The ex vivo flow cytometry data (FIGS. 15B-15E) are shown as a percentage of cells gated positive for each antigen relative to total live cells gated via FSC/SCC. It should be noted that percentages reported are relative values to the total ex vivo EBC1 tumor and that a reduction in one cell population (e.g., EPCAM positive cancer cells) would result in an inverse increase in remaining cell populations when this analysis method is used.
Dissociated single-cell suspensions of the ex vivo EBC1 tumors shown in FIG. 15A were seeded at 120,000 live cells into tissue culture microscopy chamber slides. Cells were allowed to sit and incubate for 48 hours, and then fixed in 2% paraformaldehyde for 15 min at 37° C. The cells were washed with PBS and permeabilized using 0.3% Triton-X in PBS at 37° C. for 30 min. Cells were washed with PBS and blocked in 5% BSA for 30 min at 37° C. Cells were incubated with anti-α-SMA (clone 1A4 DAKO, Cat. #36962) and then detected with AlexaFluor AF594 (Life Technologies, Cat. #A21203) secondary antibody (2 μg/mL) for 30 min at 37° C. Subsequently, cells were stained using anti-human EpCAM-AF488 (Cell Signaling Technology, Cat. #5198) and washed 3× in PBS. Finally the slides were removed from the chambers and mounted with a coverslip using ProLong Diamond Anti-Fade with DAPI (Life Technologies, Cat. #36962). Image acquisition was performed using Zeiss Axiovision Software on a Zeiss Axiovert 200M inverted fluorescent microscope. Statistical differences between groups were determined using unpaired T tests in GraphPad Prism™. […] The percentage of pHH3 positive cells decreased with additional dosing and longer time (FIG. 15H) correlating with cancer cell death and tumor shrinkage (FIG. 15A).

[3] = tested on: NW231 breast cancer xenograft; assay: NW231 xenograft tumor growth; conditions: NW231, SCID mice; biologics 12 mg/kg IP Q4D×6; doxorubicin 1 mg/kg IV days 0, 4, 8, 13, 18 (FIG. 20D)
Procedure: In FIG. 20D, NW231 breast cancer cells (10 million) were implanted subcutaneously into SCID mice, and mice were randomized when the tumors reached ˜150 mm^3 and dosed with biologics at 12 mg/kg intraperitoneally on a Q4D×6 (one dose given every 4 days for a total of 6 doses), while doxorubicin was dosed intravenously at 1 mg/kg on days 0, 4, 8, 13 and 18.

[4] = tested on: SCC-15 head and neck cancer xenograft; assay: SCC-15 xenograft tumor growth
[5] = biologics 12 mg/kg IP Q4D×6 (FIG. 21D)
[6] = biologics 12 mg/kg IP Q7D×6, carboplatin 50 mg/kg IP Q4D×4 (FIG. 21E)
[7] = SCC-15, ADC 12 mg/kg IP Q4D×6 plus single radiation dose of 15 Gy on day 0 (FIG. 21D)
[8] = SCC-15, ADC 12 mg/kg IP Q7D×6 plus carboplatin 50 mg/kg IP Q4D×4 (FIG. 21E)
[9] = EBC-1 tumors, 6 mg/kg IP day 0 and 4, harvested day 11 (FIG. 15F)
[10] = SCC-15, SCID mice, ADCs 12 mg/kg IP Q7D×6, cetuximab 3 mg/kg IP Q7D×3 (FIG. 22B)
[11] = SCC-15, ADC 12 mg/kg IP Q7D×6 plus cetuximab 3 mg/kg IP Q7D×3 (FIG. 22B)

Substance: huM25-vcMMAE-E2: huM25 conjugated with maleimidocaproyl val-cit PABA MMAE, preparation enriched in DAR2 by HIC
- TGD, single agent [1, 5]: 44%
- TGImax, single agent [1, 5]: 58%
- TGD, single agent [1, 6]: 44%
- TGImax, single agent [1, 6]: 58%
- TGD, used adjunctively with radiation [1, 7]: 219%
- TGImax, used adjunctively with radiation [1, 7]: 90%
- TGD, used adjunctively with carboplatin [1, 8]: 83%
- TGImax, used adjunctively with carboplatin [1, 8]: 86%
- TGD [2]: 194%
- TGImax [2]: 96%
- cancer cells in ex vivo tumor (microscopy count) (EBC-1 tumors; [9]): significant decrease
- fibroblast population in ex vivo tumor (EBC-1 tumors; [9]): continued to persist
- phosphohistone H3 (pHH3) staining, mitotic figures (EBC-1 tumors; EBC-1 tumors, 6 mg/kg, after 72 hours (FIG. 15G)): higher number of mitotic figures
- staining for CD45 and F4/80 (EBC-1 tumors; EBC-1 tumors, day 11 post-treatment, 6 mg/kg, compared with isotype ADC (FIG. 15I)): enhanced staining
- immune infiltrate (CD11c or F4/80 positive cells) (EBC-1 tumors; ex vivo flow cytometry of EBC-1 tumors post treatment (FIGS. 15D-15E)): increase in immune infiltrate
- TGImax [3]: 89%
- TGD, single agent [4, 10]: 44%
- TGImax, single agent [4, 10]: 58%
- TGD, used adjunctively with cetuximab [4, 11]: 125%
- TGImax, used adjunctively with cetuximab [4, 11]: 87%
